In patent US8192962B2, “Processes for detecting toxic substances” (Daikin Industries, Ltd., priority 2001, dated 2012):

Tested on: Metabolism protein genes
Experiment: DNA chip mRNA expression in yeast, metabolism protein genes (Table 7)
Assay type: cell-based, Saccharomyces cerevisiae S288C
In short: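 Untreated cultures served as reference for log-phase S288C yeast given a growth-inhibiting, non-lethal toxicant dose for 2 h at 25° C. in YPD. Gene expression was measured on a whole-genome DNA chip from Cy3/Cy5-labeled cDNA.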

[Cl][Pb][Cl] [(4), PbCl2]
The level of expressed mRNA in the presence of chemical substance/The level of expressed mRNA in the absence of chemical substance (yeast gene YJR155W): 2.5 | The level of expressed mRNA in the presence of chemical substance/The level of expressed mRNA in the absence of chemical substance (yeast gene YKL035W): 1.2 | level of expressed mRNA in the presence/in the absence of chemical substance (yeast gene YKL060C): 1.0 | The level of expressed mRNA in the presence of chemical substance/The level of expressed mRNA in the absence of chemical substance (yeast gene YKL091C): 2.6 | The level of expressed mRNA in the presence of chemical substance/The level of expressed mRNA in the absence of chemical substance (yeast gene YKL104C): 1.2 | level of expressed mRNA in the presence/in the absence of chemical substance (yeast gene YKL148C): 0.7 | The level of expressed mRNA in the presence of chemical substance/The level of expressed mRNA in the absence of chemical substance (yeast gene YKL152C): 0.9 | level of expressed mRNA in the presence/in the absence of chemical substance (yeast gene YKL157W): 1.3 | The level of expressed mRNA in the presence of chemical substance/The level of expressed mRNA in the absence of chemical substance (yeast gene YKL213C): 1.3 | The level of expressed mRNA in the presence of chemical substance/The level of expressed mRNA in the absence of chemical substance (yeast gene YKL215C): 0.8 | level of expressed mRNA in the presence/in the absence of chemical substance (yeast gene YKR034W): 4.7 | The level of expressed mRNA in the presence of chemical substance/The level of expressed mRNA in the absence of chemical substance (yeast gene YLL058W): 0.9 | level of expressed mRNA in the presence/in the absence of chemical substance (yeast gene YLR006C): 6.2 | level of expressed mRNA in the presence/in the absence of chemical substance (yeast gene YLR044C): 0.9 | level of expressed mRNA in the presence/in the absence of chemical substance (yeast gene YLR056W): 0.8 | level of expressed mRNA in the presence/in the absence of chemical substance (yeast gene YLR058C): 2.6 | level of expressed mRNA in the presence/in the absence of chemical substance (yeast gene YLR081W): 3.6 | level of expressed mRNA in the presence/in the absence of chemical substance (yeast gene YLR089C): 0.9 | The level of expressed mRNA in the presence of chemical substance/The level of expressed mRNA in the absence of chemical substance (yeast gene YLR180W): 1.0 | The level of expressed mRNA in the presence of chemical substance/The level of expressed mRNA in the absence of chemical substance (yeast gene YLR273C): 2.4 | level of expressed mRNA in the presence/in the absence of chemical substance (yeast gene YLR284C): 1.9 | The level of expressed mRNA in the presence of chemical substance/The level of expressed mRNA in the absence of chemical substance (yeast gene YLR299W): 1.3 | The level of expressed mRNA in the presence of chemical substance/The level of expressed mRNA in the absence of chemical substance (yeast gene YLR300W): 1.0 | level of expressed mRNA in the presence/in the absence of chemical substance (yeast gene YLR304C): 0.7 | The level of expressed mRNA in the presence of chemical substance/The level of expressed mRNA in the absence of chemical substance (yeast gene YLR307W): 3.3 | The level of expressed mRNA in the presence of chemical substance/The level of expressed mRNA in the absence of chemical substance (yeast gene YLR348C): 1.2 | level of expressed mRNA in the presence/in the absence of chemical substance (yeast gene YLR354C): 1.5 | level of expressed mRNA in the presence/in the absence of chemical substance (yeast gene YLR372W): 0.8 | level of expressed mRNA in the presence/in the absence of chemical substance (yeast gene YML022W): 1.1 | The level of expressed mRNA in the presence of chemical substance/The level of expressed mRNA in the absence of chemical substance (yeast gene YML054C): 3.4 | The level of expressed mRNA in the presence of chemical substance/The level of expressed mRNA in the absence of chemical substance (yeast gene YML070W): 1.9 | The level of expressed mRNA in the presence of chemical substance/The level of expressed mRNA in the absence of chemical substance (yeast gene YML100W): 1.4 | The level of expressed mRNA in the presence of chemical substance/The level of expressed mRNA in the absence of chemical substance (yeast gene YMR008C): 1.0 | level of expressed mRNA in the presence/in the absence of chemical substance (yeast gene YMR011W): 5.5 | level of expressed mRNA in the presence/in the absence of chemical substance (yeast gene YMR015C): 0.9 | The level of expressed mRNA in the presence of chemical substance/The level of expressed mRNA in the absence of chemical substance (yeast gene YMR020W): 1.7 | level of expressed mRNA in the presence/in the absence of chemical substance (yeast gene YMR083W): 1.1 | The level of expressed mRNA in the presence of chemical substance/The level of expressed mRNA in the absence of chemical substance (yeast gene YMR105C): 4.2 | The level of expressed mRNA in the presence of chemical substance/The level of expressed mRNA in the absence of chemical substance (yeast gene YMR189W): 2.8 | level of expressed mRNA in the presence/in the absence of chemical substance (yeast gene YMR205C): 0.8 | level of expressed mRNA in the presence/in the absence of chemical substance (yeast gene YMR261C): 0.8 | The level of expressed mRNA in the presence of chemical substance/The level of expressed mRNA in the absence of chemical substance (yeast gene YMR271C): 2.0 | The level of expressed mRNA in the presence of chemical substance/The level of expressed mRNA in the absence of chemical substance (yeast gene YMR296C): 2.6 | level of expressed mRNA in the presence/in the absence of chemical substance (yeast gene YMR323W): 1.1 | The level of expressed mRNA in the presence of chemical substance/The level of expressed mRNA in the absence of chemical substance (yeast gene YNL012W): 0.8 | level of expressed mRNA in the presence/in the absence of chemical substance (yeast gene YNL025C): 12.8 | The level of expressed mRNA in the presence of chemical substance/The level of expressed mRNA in the absence of chemical substance (yeast gene YNL045W): 1.3 | The level of expressed mRNA in the presence of chemical substance/The level of expressed mRNA in the absence of chemical substance (yeast gene YNL104C): 0.9 | The level of expressed mRNA in the presence of chemical substance/The level of expressed mRNA in the absence of chemical substance (yeast gene YNL106C): 1.5 | The level of expressed mRNA in the presence of chemical substance/The level of expressed mRNA in the absence of chemical substance (yeast gene YNL169C): 1.2 | level of expressed mRNA in the presence/in the absence of chemical substance (yeast gene YNL192W): 1.6 | The level of expressed mRNA in the presence of chemical substance/The level of expressed mRNA in the absence of chemical substance (yeast gene YNL231C): 0.5 | The level of expressed mRNA in the presence of chemical substance/The level of expressed mRNA in the absence of chemical substance (yeast gene YNL322C): 0.8 | The level of expressed mRNA in the presence of chemical substance/The level of expressed mRNA in the absence of chemical substance (yeast gene YNL331C): 1.0 | The level of expressed mRNA in the presence of chemical substance/The level of expressed mRNA in the absence of chemical substance (yeast gene YNL332W): 2.0 | The level of expressed mRNA in the presence of chemical substance/The level of expressed mRNA in the absence of chemical substance (yeast gene YNR019W): 1.2 | The level of expressed mRNA in the presence of chemical substance/The level of expressed mRNA in the absence of chemical substance (yeast gene YNR033W): 1.0 | The level of expressed mRNA in the presence of chemical substance/The level of expressed mRNA in the absence of chemical substance (yeast gene YNR059W): 1.4 | The level of expressed mRNA in the presence of chemical substance/The level of expressed mRNA in the absence of chemical substance (yeast gene YOL058W): 0.9 | level of expressed mRNA in the presence/in the absence of chemical substance (yeast gene YOL086C): 1.1 | level of expressed mRNA in the presence/in the absence of chemical substance (yeast gene YOL108C): 1.9 | level of expressed mRNA in the presence/in the absence of chemical substance (yeast gene YOL116W): 2.8 | The level of expressed mRNA in the presence of chemical substance/The level of expressed mRNA in the absence of chemical substance (yeast gene YOL126C): 1.6 | The level of expressed mRNA in the presence of chemical substance/The level of expressed mRNA in the absence of chemical substance (yeast gene YOL153C): 3.9 | level of expressed mRNA in the presence/in the absence of chemical substance (yeast gene YOL156W): 1.1 | The level of expressed mRNA in the presence of chemical substance/The level of expressed mRNA in the absence of chemical substance (yeast gene YOL165C): 0.9 | level of expressed mRNA in the presence/in the absence of chemical substance (yeast gene YOR002W): 0.9 | level of expressed mRNA in the presence/in the absence of chemical substance (yeast gene YOR085W): 1.0 | The level of expressed mRNA in the presence of chemical substance/The level of expressed mRNA in the absence of chemical substance (yeast gene YOR099W): 1.3 | level of expressed mRNA in the presence/in the absence of chemical substance (yeast gene YOR103C): 1.8 | level of expressed mRNA in the presence/in the absence of chemical substance (yeast gene YOR108W): 0.6 | level of expressed mRNA in the presence/in the absence of chemical substance (yeast gene YOR128C): 2.1 | The level of expressed mRNA in the presence of chemical substance/The level of expressed mRNA in the absence of chemical substance (yeast gene YOR130C): 1.0 | level of expressed mRNA in the presence/in the absence of chemical substance (yeast gene YOR142W): 1.0 | level of expressed mRNA in the presence/in the absence of chemical substance (yeast gene YOR176W): 0.9 | level of expressed mRNA in the presence/in the absence of chemical substance (yeast gene YOR178C): 2.3 | level of expressed mRNA in the presence/in the absence of chemical substance (yeast gene YOR251C): 1.8 | The level of expressed mRNA in the presence of chemical substance/The level of expressed mRNA in the absence of chemical substance (yeast gene YOR336W): 1.0 | The level of expressed mRNA in the presence of chemical substance/The level of expressed mRNA in the absence of chemical substance (yeast gene YOR347C): 2.2 | level of expressed mRNA in the presence/in the absence of chemical substance (yeast gene YOR348C): 2.0 | The level of expressed mRNA in the presence of chemical substance/The level of expressed mRNA in the absence of chemical substance (yeast gene YPL017C): 1.0 | level of expressed mRNA in the presence/in the absence of chemical substance (yeast gene YPL028W): 0.9 | level of expressed mRNA in the presence/in the absence of chemical substance (yeast gene YPL057C): 3.1 | level of expressed mRNA in the presence/in the absence of chemical substance (yeast gene YPL135W): 1.2 | level of expressed mRNA in the presence/in the absence of chemical substance (yeast gene YPL148C): 2.3 | The level of expressed mRNA in the presence of chemical substance/The level of expressed mRNA in the absence of chemical substance (yeast gene YPR026W): 1.3 | level of expressed mRNA in the presence/in the absence of chemical substance (yeast gene YPR113W): 1.3 | level of expressed mRNA in the presence/in the absence of chemical substance (yeast gene YPR165W): 1.0 | The level of expressed mRNA in the presence of chemical substance/The level of expressed mRNA in the absence of chemical substance (yeast gene YPR167C): 0.8 | level of expressed mRNA in the presence/in the absence of chemical substance (yeast gene YPR183W): 0.8
